Measurements: patent US8846669B2, “Oxazolidinone derivative and medical composition containing same” (Legochem Biosciences, Inc., priority 2011, dated 2014)
In brackets after ≈: the same amount, converted by molar mass. Read-outs that look alike come from different tables or passages of the source.

Columns and labels:
Test in all cases: In vitro antibacterial activity, broth microdilution MIC90
Format in all cases: cell-based
[1] = test system: Linezolid and Vancomycin Resistant Enterococcus faecium (strain 11); conditions: Enterococcus faecium
Procedure: (§1) MIC90 was measured by broth microdilution method based on CLSI standards [reference: Clinical and Laboratory Standards Institute Document. (2000) Methods for Dilution Antimicrobial Susceptibility Test for Bacteria that Grow Aerobically-Fifth Edition: M7-A5. CLSI, Villanova, Pa.].
(§2) Activities of 12 strains including Staphylococcus aureus, Methicillin Resistant Staphylococcus aureus, Staphylococcus epidermidis, Methicillin Resistant Staphylococcus epidermidis, Enterococcus faecalis, Vancomycin Resistant Enterococcus faecalis, Linezolid and Vancomycin Resistant Enterococcus faecalis, Enterococcus faecium, Vancomycin Resistant Enterococcus faecium, Linezolid and Vancomycin Resistant Enterococcus faecium, and Moraxella catarrhalis, were measured, and results are shown in Table 1 below.
(§3) The final concentration of test material in the antibacterial test was from 0.063 μg/mL (minimum) to 128 μg/mL (maximum), and the final concentration of DMSO used as an excipient was 2.5% (V/V). Linezolid represented by Formula B below (manufactured by Pfizer) was used as a control and bacterial activity thereof was compared with those of the test materials.

Enterococcus faecium = conditions: Enterococcus faecium
Procedure: as §1, §2, §3

[2] = test system: Linezolid and Vancomycin Resistant Enterococcus faecalis; conditions: for MIC90: Enterococcus faecalis
Procedure: as §1, §2, §3

[3] = test system: Methicillin Resistant Staphylococcus epidermidis; conditions: Staphylococcus epidermidis
Procedure: as §1, §2, §3

[4] = test system: Vancomycin Resistant Enterococcus faecium; conditions: Enterococcus faecium
Procedure: as §1, §2, §3

Moraxella catarrhalis = conditions: Moraxella catarrhalis
Procedure: as §1, §2, §3

Staphylococcus aureus = conditions: Staphylococcus aureus
Procedure: as §1, §2, §3

[5] = test system: Methicillin Resistant Staphylococcus aureus; conditions: Staphylococcus aureus
Procedure: as §1, §2, §3

[6] = test system: Staphylococcus epidermidis; conditions: Staphylococcus epidermidis
Procedure: as §1, §2, §3

[7] = test system: Vancomycin Resistant Enterococcus faecalis; conditions: Enterococcus faecalis
Procedure: as §1, §2, §3

[8] = test system: Linezolid and Vancomycin Resistant Enterococcus faecium (strain 10); conditions: Enterococcus faecium
Procedure: as §1, §2, §3

Enterococcus faecalis = conditions: Enterococcus faecalis
Procedure: as §1, §2, §3

[9] = strain 11, E. faecium VanA LR, read-out: MIC90
[10] = strain 8, E. faecium, read-out: MIC90
[11] = strain 7, E. faecalis VanA LR, read-out: MIC90
[12] = strain 4, S. epidermidis MR, read-out: MIC90
[13] = strain 9, E. faecium VanA, read-out: MIC90
[14] = strain 1, S. aureus, read-out: MIC90
[15] = strain 2, S. aureus MR, read-out: MIC90
[16] = strain 3, S. epidermidis, read-out: MIC90
[17] = strain 6, E. faecalis VanA, read-out: MIC90
[18] = strain 10, E. faecium VanA LR, read-out: MIC90
[19] = strain 5, E. faecalis, read-out: MIC90

Structure (SMILES) | MIC90 [1] [µg/mL] | MIC90 (Enterococcus faecium) [µg/mL] | MIC90 [2] [µg/mL] | MIC90 [3] [µg/mL] | MIC90 [4] [µg/mL] | MIC90 (Moraxella catarrhalis) [µg/mL] | MIC90 (Staphylococcus aureus) [µg/mL] | MIC90 [5] [µg/mL] | MIC90 [6] [µg/mL] | MIC90 [7] [µg/mL] | MIC90 [8] [µg/mL] | MIC90 (Enterococcus faecalis) [µg/mL] | further results
CC(=O)NC[C@H]1CN(c2ccc(-c3ccc(N4C=NN(C=O)CC4)nc3)c(F)c2)C(=O)O1 [Compound 1] |  |  |  |  |  |  |  |  |  |  |  |  | MIC90 [1, 9]: 2 µg/mL (≈ 4.54 µM); MIC90 (Enterococcus faecium; [10]): 0.5 µg/mL (≈ 1.14 µM); MIC90 [2, 11]: 2 µg/mL (≈ 4.54 µM); MIC90 [3, 12]: 1 µg/mL (≈ 2.27 µM); MIC90 [4, 13]: 0.5 µg/mL (≈ 1.14 µM); MIC90 (Moraxella catarrhalis; strain 12, M. catarrhalis, read-out: MIC90): 2 µg/mL (≈ 4.54 µM); MIC90 (Staphylococcus aureus; [14]): 0.5 µg/mL (≈ 1.14 µM); MIC90 [5, 15]: 1 µg/mL (≈ 2.27 µM); MIC90 [6, 16]: 0.25 µg/mL (≈ 0.568 µM); MIC90 [7, 17]: 0.5 µg/mL (≈ 1.14 µM); MIC90 [8, 18]: 2 µg/mL (≈ 4.54 µM); MIC90 (Enterococcus faecalis; [19]): 0.5 µg/mL (≈ 1.14 µM)
CC(=O)NC[C@H]1CN(c2ccc(-c3ccc(N4C=NNCC4)nc3)c(F)c2)C(=O)O1 [Compound 2] | 2 (≈ 4.85 µM) | 0.5 (≈ 1.21 µM) | 2 (≈ 4.85 µM) | 1 (≈ 2.42 µM) | 0.5 (≈ 1.21 µM) | 4 (≈ 9.7 µM) | 0.5 (≈ 1.21 µM) | 1 (≈ 2.42 µM) | 0.5 (≈ 1.21 µM) | 0.5 (≈ 1.21 µM) | 2 (≈ 4.85 µM) | 0.5 (≈ 1.21 µM) | 
CC(=O)NC[C@H]1CN(c2ccc(-c3ccc(N4C=NN(C)CC4)nc3)c(F)c2)C(=O)O1 [Compound 3] | 0.5 (≈ 1.17 µM) | 0.063 (≈ 0.148 µM) | 0.5 (≈ 1.17 µM) | 0.5 (≈ 1.17 µM) | 0.125 (≈ 0.293 µM) | 0.25 (≈ 0.586 µM) | 0.063 (≈ 0.148 µM) | 0.5 (≈ 1.17 µM) | 0.125 (≈ 0.293 µM) | 0.125 (≈ 0.293 µM) | 0.5 (≈ 1.17 µM) | 0.25 (≈ 0.586 µM) | antibacterial activity against linezolid-resistant bacteria (in words) ([2]; Enterococcus faecalis and Enterococcus faecium which are resistant to linezolid): very high antibacterial activity
CCN1CCN(c2ccc(-c3ccc(N4C[C@H](CNC(C)=O)OC4=O)cc3F)cn2)C=N1 [Compound 4] | 2 (≈ 4.54 µM) | 0.5 (≈ 1.14 µM) | 2 (≈ 4.54 µM) | 1 (≈ 2.27 µM) | 0.5 (≈ 1.14 µM) | 2 (≈ 4.54 µM) | 0.5 (≈ 1.14 µM) | 1 (≈ 2.27 µM) | 0.5 (≈ 1.14 µM) | 0.5 (≈ 1.14 µM) | 2 (≈ 4.54 µM) | 0.5 (≈ 1.14 µM) | 
CCOC(=O)CN1CCN(c2ccc(-c3ccc(N4C[C@H](CNC(C)=O)OC4=O)cc3F)cn2)C=N1 [Compound 5] | 2 (≈ 4.01 µM) | 0.5 (≈ 1 µM) | 2 (≈ 4.01 µM) | 1 (≈ 2.01 µM) | 0.5 (≈ 1 µM) |  | 0.5 (≈ 1 µM) | 1 (≈ 2.01 µM) | 0.5 (≈ 1 µM) | 0.5 (≈ 1 µM) | 2 (≈ 4.01 µM) | 0.5 (≈ 1 µM) | 
CC(=O)NC[C@H]1CN(c2ccc(-c3ccc(N4C=NN(CCO)CC4)nc3)c(F)c2)C(=O)O1 [Compound 6] |  |  |  |  |  |  |  |  |  |  |  |  | MIC90 [1, 9]: 2 µg/mL (≈ 4.38 µM); MIC90 (Enterococcus faecium; [10]): 0.5 µg/mL (≈ 1.1 µM); MIC90 [2, 11]: 2 µg/mL (≈ 4.38 µM); MIC90 [3, 12]: 1 µg/mL (≈ 2.19 µM); MIC90 [4, 13]: 0.5 µg/mL (≈ 1.1 µM); MIC90 (Staphylococcus aureus; [14]): 0.5 µg/mL (≈ 1.1 µM); MIC90 [5, 15]: 1 µg/mL (≈ 2.19 µM); MIC90 [6, 16]: 0.5 µg/mL (≈ 1.1 µM); MIC90 [7, 17]: 0.5 µg/mL (≈ 1.1 µM); MIC90 [8, 18]: 2 µg/mL (≈ 4.38 µM); MIC90 (Enterococcus faecalis; [19]): 0.5 µg/mL (≈ 1.1 µM)
C=CCN1CCN(c2ccc(-c3ccc(N4C[C@H](CNC(C)=O)OC4=O)cc3F)cn2)C=N1 [Compound 7] | 4 (≈ 8.84 µM) | 1 (≈ 2.21 µM) | 4 (≈ 8.84 µM) | 1 (≈ 2.21 µM) | 1 (≈ 2.21 µM) | 2 (≈ 4.42 µM) | 0.5 (≈ 1.1 µM) | 1 (≈ 2.21 µM) | 0.5 (≈ 1.1 µM) | 1 (≈ 2.21 µM) | 4 (≈ 8.84 µM) | 0.5 (≈ 1.1 µM) | 
C#CCN1CCN(c2ccc(-c3ccc(N4C[C@H](CNC(C)=O)OC4=O)cc3F)cn2)C=N1 [Compound 8] | 4 (≈ 8.88 µM) | 1 (≈ 2.22 µM) | 4 (≈ 8.88 µM) | 1 (≈ 2.22 µM) | 0.5 (≈ 1.11 µM) | 2 (≈ 4.44 µM) | 0.25 (≈ 0.555 µM) | 1 (≈ 2.22 µM) | 0.5 (≈ 1.11 µM) | 1 (≈ 2.22 µM) | 4 (≈ 8.88 µM) | 0.5 (≈ 1.11 µM) | 
CC(=O)NC[C@H]1CN(c2ccc(-c3ccc(N4C=NN(CC(=O)OC(C)(C)C)CC4)nc3)c(F)c2)C(=O)O1 [Compound 9] | 8 (≈ 15.2 µM) | 2 (≈ 3.8 µM) | 8 (≈ 15.2 µM) | 4 (≈ 7.6 µM) | 2 (≈ 3.8 µM) |  | 1 (≈ 1.9 µM) | 4 (≈ 7.6 µM) | 1 (≈ 1.9 µM) | 2 (≈ 3.8 µM) | 8 (≈ 15.2 µM) | 1 (≈ 1.9 µM) | 
